Consider four compounds from US20250051762A1, “PLATFORM USING DNA-ENCODED SMALL MOLECULE LIBRARIES AND RNA SELECTION TO DESIGN SMALL MOLECULES THAT TARGET RNA” (University of Florida Research Foundation, Incorporated, priority 2021, published 2025).

Assay [1] concerns 3×3 ILL. As to the kind of experiment: 2DCS selection of microarray-immobilized compounds with 32P-labeled 3×3 ILL, Hit-StARTS analysis of RNA-seq. Format: binding. To be noted: Zobs >4. The protocol: The interaction landscape for the ten representative DEL compounds emerging from the FACS screen were then defined by 2DCS (22). In 2DCS, small molecules are site-specifically conjugated to a microarray surface and then probed for binding to an RNA library under highly stringent conditions (FIGS. 2-B & S6). That is, the array is co-incubated with a radioactively labeled RNA library and an excess of competitor oligonucleotides that mimic regions common to all library members. […] To enable site-specific immobilization of compounds 1-10, a C-terminal alkyne handle was installed for CuAAC click (30) coupling to azide-displaying array surfaces. Installation of the alkyne was accomplished by coupling of bromoacetic acid onto rink amide resin followed by nucleophilic displacement with propargylamine prior to the synthesis of the SPDEL compounds (FIG. 2A).
All ten compounds bound to the 3×3 ILL under the highly stringent conditions described above, almost all dose-dependently (FIG. 2B). The RNAs bound to each small molecule were harvested, reverse transcribed into DNA, and sequenced by RNA-seq. The resulting data set was statistically analyzed by using High Throughput Structure-Activity Relationships Through Sequencing (Hit-StARTS) (31) in which the relative frequency of each selected RNA is compared to the frequency of that RNA in the starting library (pooled population comparison). (31) The statistical significance of the enrichment of selected RNAs is quantified by Zobs, which correlates with affinity and selectivity. (31) Here, a cut-off of Zobs >4 was employed, which was empirically determined from measured affinities via evaluation of compound 9 binding with potential RNA motifs extracted from the 2DCS (FIGS. 2-B, 13, & 14). […] This cut-off afforded, on average, 60±40 (range: 6-155) preferred, or privileged, RNA 3D folds for each compound. Compound 6 bound to largest number of RNA targets (n=155) while compound 9 bound the fewest (n=6) (FIG. 14). […]

Assay [2] deals with 5′GAG/3′CCC loop at pri-miR-27a's Drosha site. As to the kind of experiment: Binding affinity by microscale thermophoresis (MST), Cy5-labeled RNA. Also on record: species or system human. The method, then: (§1) Binding affinity measurements: Binding affinities were measured by microscale thermophoresis (MST), performed on a Monolith NT.115 system (NanoTemper Technologies) with Cy5-labeled RNAs. These RNAs include: the 5′GAG/3′CCC SEQ ID NO: 16 loop at pri-miR-27a's Drosha site (Sequence:/5′-Cy5/rCrUrGrArGrGrUrGrArArArCrArUrCrCrCrArG SEQ ID NO: 17; Dharmacon), a related internal loop not selected by 9. 5′CAG/3′GCC SEQ ID NO: 17 loop (Sequence:/5′-Cy5/rCrUrCrArGrGrUrGrArArArCrArUrCrCrGrArG SEQ ID NO: 16; Dharmacon), and an RNA in which the loop is mutated to a base pair (Sequence:/5-Cy5/rCrUrGrArGrGrUrGrArArArCrArUrCrUrCrArG SEQ ID NO: 16; Dharmacon).
(§2) Briefly, Cy5-labeled RNA (10 nM) was prepared in 1× Binding Buffer and folded by heating at 60° C. for 5 min and then slowly cooling to room temperature. After cooling, Tween-20 was added to a final concentration of 0.1% (v/v). Compound solutions were prepared separately in 20 μL of 1× Binding Buffer at a final concentration of 5 μM (1% (v/v) DMSO), followed by 1:1 serial dilutions in 1× Binding Buffer. RNA and compound solutions were then mixed 1:1 by volume to a total of 20 μL.
(§3) Samples were incubated for 20 min at room temperature and then loaded into premium capillaries (NanoTemper Tech, Cat #MO-K025). The following parameters were used for MST measurements: 5-20% LED power (adjusted to keep fluorescence intensity between 2000 and 8000), 80% MST power, Laser-On time=30 s, Laser-Off time=25 s. The resulting data were analyzed by calculating the change in thermophoresis as a function of compound concentration and fitted by Equation 1, a one site binding model, in NanoTemper Tech's MST analysis software to yield the dissociation constant (Kd):
(§4) Where F is the concentration of fluorescently labeled RNA; unbound and bound refer to the thermophoresis signal at completely unbound and bound state of RNA, respectively; c is the concentration of the compound; f (c) is the thermophoresis signal at compound concentration of c; and Kd is the dissociation constant.

Assay [3] relates to fully paired RNA (loop mutated to a base pair). In words: Binding affinity by MST, Cy5-labeled fully paired RNA. The method, then:
as §1, §2, §3, §4

In assay [4] the test system is pri-miR-27a. As to the kind of experiment: RT-qPCR of pri- and mature miR-27a in MDA-MB-231 TNBC cells. The conditions noted are these: MDA-MB-231, RT-qPCR. Type of assay: cell-based, human. The protocol: Cell lines. Compounds were tested in MDA-MB-231 TNBC cells (HTB-26, ATCC), LNCaP metastatic prostate cancer cells (gifted from Junli Luo lab), MCF-7 (HTB-22, ATCC) breast cancer cells, HeLa cervical adenocarcinoma cells (CCL-2, ATCC), and MCF-10a, a model of healthy breast epithelial cells (CRL-10317, ATCC).
Cell culture and compound treatment. All cells were maintained at 37° C. with 5% CO2. MDA-MB-231 and LNCaP cells were cultured in RPMI 1640 medium with L-glutamine & 25 mM HEPES (Corning) supplemented with 10% (v/v) fetal bovine serum (FBS; Sigma) and 1× (v/v) Antibiotic-Antimycotic solution (Corning). MCF-7 and HeLa cells were cultured in DMEM medium with 4.5 g/L glucose (Corning), supplemented with 10% FBS, 1× (v/v) Glutagro (Corning), and 1× (v/v) Antibiotic-Antimycotic solution. MCF10a cells were cultured in DMEM/F12 50/50 with L-glutamine & 15 mM HEPES (Corning), supplemented with 10% FBS, 20 ng/mL human epidermal growth factor (Pepro Tech Inc.), […] hydrocortisone (Pfaltz & Bauer), 100 ng/mL cholera toxin (Sigma-Aldrich), 10 μg/mL insulin (Sigma-Aldrich), and 1× (v/v) Antibiotic-Antimycotic solution.
MCF-10a cells were transfected with plasmids to express pri-miR-27a and mutant pri-miR-27a in 12- or 24-well plates with Lipofectamine 2000 per the manufacturer's protocol. For treatment of compounds, stocks were diluted in growth medium and added to cells for 48 h. The miRCURY miR-27a LNA inhibitor (QIAGEN, Cat #339121) was used as a positive control by diluting in growth medium to a final concentration of 1 nM. The miRCURY LNA Negative Control (QIAGEN, Cat #YI00199007-DDA) was used as a negative control, which has also diluted in growth medium to a final concentration of 1 nM.
Analysis of mRNA abundance: Each cell line was grown as a monolayer in 12- or 24-well plates and treated as described in “Cell culture and compound treatment”. After 48 h, the cells were lysed, and total RNA was harvested using a Zymo Quick RNA Miniprep Kit per the manufacturer's protocol. To measure the abundance of mature miRNAs, approximately 250 ng of total RNA was reverse transcribed using the High Flex Buffer provided in a miScript II RT Kit (Qiagen) per the manufacturer's protocol (10 μL total reaction volume). For pri-miRNAs and mRNA, approximately 300 ng of total RNA was reverse transcribed using a qScript cDNA synthesis kit (10 μL total reaction volume, Quanta BioSciences). For all types of RNAs, 2 μL of the RT reaction was used for qPCR using SYBR Green Master Mix and a QuantStudio™ 5 Real-Time PCR System. Relative abundance of mature miRNAs was calculated by normalizing to RNU6, and relative abundance for pri-miRNAs and mRNAs was calculated by normalizing to 18S ribosomal RNA, using the […]. (12)

The test system of assay [5] is 5′CAG/3′GCC loop. In words: Binding affinity by MST, Cy5-labeled mutated loop RNA. Also on record: species or system human. To be noted: mutated loop 5′CAG/3′GCC. The protocol: as §1
Briefly, Cy5-labeled RNA (10 nM) was prepared in 1× Binding Buffer and folded by heating at 60° C. for 5 min and then slowly cooling to room temperature. […]
Samples were incubated for 20 min at room temperature and then loaded into premium capillaries (NanoTemper Tech, Cat #MO-K025). The following parameters were used for MST measurements: 5-20% LED power (adjusted to keep fluorescence intensity between 2000 and 8000), 80% MST power, Laser-On time=30 s, Laser-Off time=25 s. The resulting data were analyzed by calculating the change in thermophoresis as a function of compound concentration and fitted by Equation 1, a one site binding model, in NanoTemper Tech's MST analysis software to yield the dissociation constant (Kd): […]

Structures are written as SMILES.

For the compound `C#CCN(CC(N)=O)C(=O)C(CC(C)C)N1CC[C@H](NC(=O)[C@@H]2C[C@@H](N)CN2C(=O)c2c[nH]c3ccc(Cl)cc23)C1=O` (some centres unmarked) [Compound 4], in assay [1], the “number of RNA motifs bound that are unique to the compound” value stood at 2.
On to `C#CCN(CC(N)=O)C(=O)C[C@H](Cc1c[nH]c2ccccc12)NC(=O)[C@@H]1C[C@@H](NC(=O)Cn2c(=O)[nH]c3ccccc3c2=O)CN1` [Compound 10], for which the binding result in assay [2] and in assay [5] was “binds to none of the three RNAs” each time. The saturable binding entry in assay [3] is reported as “binds to none of the three RNAs”. Besides, the “inhibition of miR-27a (comparison of 5, 7, 9, 10)” value in assay [4] was “inactive”.
For `C#CCN(CC(N)=O)C(=O)C(CC(C)C)N1CC[C@H](NC(=O)[C@@H]2C[C@H](N)CN2C(=O)c2c[nH]c3ccc(Cl)cc23)C1=O` (some centres unmarked) [Compound 3], the “number of RNA motifs bound that are unique to the compound” value in assay [1] was found to be 41.
In assay [2], `C#CCN(CC(N)=O)C(=O)C1CCN1C(=O)C1CC(N)CN1C(=O)c1ccccc1C(=O)N1CCOCC1` (centres unmarked) [Compound 5] had a Kd of 700 ± 100 nM. Also, the saturable binding result in assay [3] is reported as “Saturable binding was not observed”.
